Laboratory results taken from patent publication US20110189293A1, “THERAPEUTIC REGIMENS FOR THE TREATMENT OF IMMUNOINFLAMMATORY DISORDERS” (CombinatoRx, Incoporated, priority 2007, published 2011).

Legend:
[1] = cited from earlier work; for Equivalent dose, equal to 5 mg prednisolone: BNF guidelines
[2] = Equivalent corticosteroid dosing (BNF clinical dosing equivalence); details: BNF guidelines
Protocol: Equivalent potency in clinical dosing is well known.
The BNF guidelines are included in Table 2 below. More specifically, Table 2 provides doses of corticosteroids equivalent to 5 mg of prednisolone and equivalent to 1 mg of prednisolone when administered in a manner according to this invention.

Molecule | Equivalent dose, equal to 5 mg prednisolone [1] | Equivalent dose, equal to 1 mg prednisolone [2] | broadly similar dose from clinical dosing equivalence ([1]; nasal administration, BNF 37 March 1999)
CC(=O)OCC(=O)[C@@]12N=C(C)O[C@@H]1C[C@H]1[C@@H]3CCC4=CC(=O)C=C[C@]4(C)[C@H]3[C@@H](O)C[C@@]12C [Deflazacort] | 6 mg | 1.2 mg | –
C[C@]12CCC(=O)C=C1CC[C@@H]1[C@@H]2[C@@H](O)C[C@@]2(C)[C@H]1CC[C@]2(O)C(=O)CO [Hydrocortisone] | 20 mg | 4 mg | –
C[C@]12C=CC(=O)C=C1CC[C@H]1[C@@H]3C[C@@H](O)[C@](O)(C(=O)CO)[C@@]3(C)C[C@H](O)[C@@]12F [Triamcinolone] | 4 mg | 0.8 mg | 110 µg
CC(=O)OCC(=O)[C@@]1(O)CC[C@H]2[C@@H]3CCC4=CC(=O)CC[C@]4(C)[C@H]3C(=O)C[C@@]21C [cortisone acetate] | 25 mg | 5 mg | –
methyl prednisone | 4 mg | 0.8 mg | –
